One compound from US8017350B2, “Glimepiride- and insulin-induced glycosylphosphatidylinositol-specific phospholipase C regulation” (Sanofi-Aventis Deutschland GmbH, priority 2004, dated 2011) can be followed below.

Assay [1] concerns the target T1, bacterial PC-PLC (Bacillus cereus) (Bacillus cereus, UniProt P09598).
T1 construct: purchased SigmalAldrich (Deisenhofen, Germany)
Description: PC-PLC assay (dipalmitoyllecithin). The assay is classed as biochemical. Conditions: 50 μM. How it is done:
(§1) Hormone-sensitive lipase (HSL) and lipoprotein lipase (LPL) were measured using a radiolabeled triolein droplet emulsion as described in “Vertesy et al., (2002) Journal Antibiotics 55:480-494”. Pancreatic lipase (PL) was determined by incubation of 0.25 mmol tributyrin in 2 ml of 5 mM Tris/HCl (pH 6.5), 6 mM sodium taurodeoxycholate, 150 mM NaCl, 1 mM CaCl2 with porcine PL and colipase in the same buffer using a recording pH stat (stirring at 1000 rpm at 25° C.) with the pH adjusted to 6.5. PC-PLC was assayed by incubation of 0.2 ml of 10 mM dipalmitoyllecithin, 0.1 ml of 10 mM SDC and 0.1 ml of 0.03 M CaCl2 with bacterial PC-PLC (in 50 mM Tris/HCl, pH 7.5, 0.1% BSA) for 10 min at 37° C. The reaction was terminated by addition of 0.1 ml of 50% TCA and subsequently of 2.5 ml of […]. After centrifugation (1500×g, 15 min), 0.2-ml portions of the upper methanol/water phase (˜1.33 ml) were removed, supplemented with 0.5 ml of 60% HClO4, then heated at 170° C. for 1 h and finally analyzed for inorganic phosphate. Mammalian PI-PLC was measured by incubation of 0.1 ml of 10 mM PI, 0.1 ml of 0.8% sodium deoxycholate, 0.1% BSA, 0.2 ml of 100 mM sodium borate (pH 7.5) and rat liver PI-PLC for 20 min at 37° C. The reaction was terminated and further processed as described for the PC-PLC. […] Radioactive phosphatidic acid was detected by phosphorimaging. […]

Assay [2] deals with rat liver PI-PLC. The assay can be described thus: mammalian PI-PLC assay. In kind it is biochemical. Conditions: 50 μM. As to the method: as §1
The test system of assay [3] is pp59Lyn and IRS-1 in isolated rat adipocytes. Description: tyrosine phosphorylation of pp59Lyn and IRS-1. In kind it is cell-based. How it is done: Polypeptides separated by SDS-PAGE were transferred to polyvinylidene difluoride membranes using the semidry procedure as described in “Müller, G. et al., (2001) Mol. Cell. Biol. 21: 4553-4567”. Washed membranes were incubated with anti-caveolin-1 (1:2000), anti-pp59^Lyn (1:1250), anti-aP (1:500), anti-5′-Nuc (1:750) and anti-IRS-1 (1:2000) antibodies for 4 h at 15° C. Washed membranes were incubated with horseradish peroxidase-coupled secondary goat anti-mouse (1:2000) or goat anti-rabbit IgG (1:4000) antibodies. Labeled proteins were visualized by enhanced chemiluminescence.
FIG. 7: Effect of GPI-2350 on the glimepiride/insulin-induced activation of signaling proteins. Isolated rat adipocytes were treated (5 min, 37° C.) without or with GPI-2350 (Panels A, 50 μM; Panels B, increasing conc.) and then incubated (120 min, 37° C.) in the absence or presence of insulin (10 nM) or glimepiride (20 μM). IRS-1 and pp59^Lyn were immunoprecipitated from the defatted postnuclear infranatant (see Materials and Methods) and solubilized combined hc/lcDIGs, respectively, and then immunoblotted for phosphotyrosine. […]

T1 sequence (P09598 39-283 limits assumed): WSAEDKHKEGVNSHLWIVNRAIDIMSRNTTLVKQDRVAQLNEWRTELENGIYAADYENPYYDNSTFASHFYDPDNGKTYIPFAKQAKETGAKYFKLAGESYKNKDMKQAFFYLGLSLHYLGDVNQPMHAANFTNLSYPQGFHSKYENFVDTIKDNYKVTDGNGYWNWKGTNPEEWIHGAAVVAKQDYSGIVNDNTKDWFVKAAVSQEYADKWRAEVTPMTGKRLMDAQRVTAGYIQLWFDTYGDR

With `CCCCCCCCCCCCP1(=O)O[C@@H]2[C@H](O)[C@@H](O)[C@H](O)[C@@H](O)[C@@H]2O1` (stereo partly shown) [GPI-2350, myo-inositol-1,2-cyclo-dodecylphosphonic acid], the “effect on PC-PLC” value in assay [1] is given as “not significantly affected”. In addition, the “effect on PI-PLC” value in assay [2] is on record as “not significantly affected”. In addition, the “effect on insulin-induced tyrosine phosphorylation of IRS-1” value in assay [3] is given as “only marginally reduced”. The “effect on tyrosine phosphorylation of pp59Lyn and IRS-1 in response to glimepiride” value in assay [3] (50 μM) is reported as “almost complete blockade”.
